Source: the NIST ThermoML archive (doi:10.1021/je900444h)

Test: mn = molality of the nth substance listed, in mol/kg
Details: 101 kPa, Liquid; for mass density: Vibrating tube method; for viscosity: Capillary tube (Ostwald / Ubbelohde) method

CNC(=O)NC [1,3-dimethylurea] + O
Details	mass density [kg/m3]	viscosity [mPa·s]
283.15 K, m1 = 0.0033	999.7	–
283.15 K, m1 = 0.0331	1000	–
283.15 K, m1 = 0.0995	1000.6	–
283.15 K, m1 = 0.1669	1001.2	–
283.15 K, m1 = 0.2354	1001.8	–
283.15 K, m1 = 0.3039	1002.4	–
283.15 K, m1 = 0.3387	1002.7	–
283.15 K, m1 = 0.4997	1004.2	–
283.15 K, m1 = 0.7491	1006.5	–
283.15 K, m1 = 1.001	1008.7	–
283.15 K, m1 = 1.08	1009.4	–
283.15 K, m1 = 1.5	1013.2	–
283.15 K, m1 = 1.923	1016.8	–
283.15 K, m1 = 2.885	1024.6	–
283.15 K, m1 = 4.005	1032.6	–
283.15 K, m1 = 5.304	1040.7	–
283.15 K, m1 = 6.862	1048.7	–
283.15 K, m1 = 8.726	1056.3	–
283.15 K, m1 = 11.02	1063.4	–
283.15 K, m1 = 15.65	1072.5	–
283.15 K, m1 = 23.15	1079.6	–
288.15 K, m1 = 0.0033	999.1	1.173
288.15 K, m1 = 0.0331	999.4	1.187
288.15 K, m1 = 0.0995	1000	1.212
288.15 K, m1 = 0.1669	1000.5	1.232
288.15 K, m1 = 0.2354	1001.1	1.243
288.15 K, m1 = 0.3039	1001.7	1.255
288.15 K, m1 = 0.3387	1002	1.27
288.15 K, m1 = 0.4997	1003.4	–
288.15 K, m1 = 0.7491	1005.6	1.402
288.15 K, m1 = 1.001	1007.8	–
288.15 K, m1 = 1.08	1008.5	–
288.15 K, m1 = 1.5	1012.1	–
288.15 K, m1 = 1.923	1015.5	1.831
288.15 K, m1 = 2.885	1023	2.225
288.15 K, m1 = 4.005	1030.7	2.746
288.15 K, m1 = 5.304	1038.4	3.342
288.15 K, m1 = 6.862	1046	4.179
288.15 K, m1 = 8.726	1053.3	5.242
288.15 K, m1 = 11.02	1060.1	6.533
288.15 K, m1 = 15.65	1068.9	9.3
288.15 K, m1 = 23.15	1075.7	14.49
293.15 K, m1 = 0.0033	998.2	1.035
293.15 K, m1 = 0.0331	998.5	1.045
293.15 K, m1 = 0.0995	999	1.066
293.15 K, m1 = 0.1669	999.6	1.081
293.15 K, m1 = 0.2354	1000.2	1.094
293.15 K, m1 = 0.3039	1000.8	1.104
293.15 K, m1 = 0.3387	1001	1.117
293.15 K, m1 = 0.4997	1002.4	–
293.15 K, m1 = 0.7491	1004.5	1.228
293.15 K, m1 = 1.001	1006.6	–
293.15 K, m1 = 1.08	1007.3	–
293.15 K, m1 = 1.5	1010.7	–
293.15 K, m1 = 1.923	1014	1.581
293.15 K, m1 = 2.885	1021.2	1.902
293.15 K, m1 = 4.005	1028.5	2.325
293.15 K, m1 = 5.304	1035.9	2.805
293.15 K, m1 = 6.862	1043.3	3.464
293.15 K, m1 = 8.726	1050.2	4.27
293.15 K, m1 = 11.02	1056.8	5.262
293.15 K, m1 = 15.65	1065.3	7.377
293.15 K, m1 = 23.15	1071.9	11.22
298.15 K, m1 = 0.0033	997.1	0.9187
298.15 K, m1 = 0.0331	997.3	0.929
298.15 K, m1 = 0.0995	997.9	0.9456
298.15 K, m1 = 0.1669	998.4	0.9603
298.15 K, m1 = 0.2354	999	0.9716
298.15 K, m1 = 0.3039	999.5	0.9789
298.15 K, m1 = 0.3387	999.8	0.9944
298.15 K, m1 = 0.4997	1001.1	–
298.15 K, m1 = 0.7491	1003.2	1.084
298.15 K, m1 = 1.001	1005.2	–
298.15 K, m1 = 1.08	1005.8	–
298.15 K, m1 = 1.5	1009.2	–
298.15 K, m1 = 1.923	1012.3	1.379
298.15 K, m1 = 2.885	1019.2	1.649
298.15 K, m1 = 4.005	1026.3	1.998
298.15 K, m1 = 5.304	1033.3	2.382
298.15 K, m1 = 6.862	1040.4	2.921
298.15 K, m1 = 8.726	1047	3.535
298.15 K, m1 = 11.02	1053.4	4.342
298.15 K, m1 = 15.65	1061.6	5.955
298.15 K, m1 = 23.15	1068	8.8
303.15 K, m1 = 0.0033	995.7	0.8242
303.15 K, m1 = 0.0331	995.9	0.8316
303.15 K, m1 = 0.0995	996.4	0.8464
303.15 K, m1 = 0.1669	997	0.8592
303.15 K, m1 = 0.2354	997.5	0.8702
303.15 K, m1 = 0.3039	998.1	0.8753
303.15 K, m1 = 0.3387	998.3	0.887
303.15 K, m1 = 0.4997	999.6	–
303.15 K, m1 = 0.7491	1001.6	0.9652
303.15 K, m1 = 1.001	1003.6	–
303.15 K, m1 = 1.08	1004.2	–
303.15 K, m1 = 1.5	1007.4	–
303.15 K, m1 = 1.923	1010.5	1.216
303.15 K, m1 = 2.885	1017.1	1.44
303.15 K, m1 = 4.005	1023.8	1.729
303.15 K, m1 = 5.304	1030.6	2.055
303.15 K, m1 = 6.862	1037.4	2.49
303.15 K, m1 = 8.726	1043.8	3.002
303.15 K, m1 = 11.02	1049.8	3.603
303.15 K, m1 = 15.65	1057.8	4.927
303.15 K, m1 = 23.15	1064	7.122
308.15 K, m1 = 0.4997	997.9	–
308.15 K, m1 = 0.7491	999.8	0.8666
308.15 K, m1 = 1.001	1001.7	–
308.15 K, m1 = 1.08	1002.3	–
308.15 K, m1 = 1.5	1005.4	–
308.15 K, m1 = 1.923	1008.4	1.079
308.15 K, m1 = 2.885	1014.8	1.271
308.15 K, m1 = 4.005	1021.3	1.511
308.15 K, m1 = 5.304	1027.8	1.778
308.15 K, m1 = 6.862	1034.3	2.135
308.15 K, m1 = 8.726	1040.5	2.545
308.15 K, m1 = 11.02	1046.3	3.056
308.15 K, m1 = 15.65	1054	4.116
308.15 K, m1 = 23.15	1060.1	5.865
313.15 K, m1 = 0.4997	996	–
313.15 K, m1 = 0.7491	997.9	0.7797
313.15 K, m1 = 1.001	999.7	–
313.15 K, m1 = 1.08	1000.3	–
313.15 K, m1 = 1.5	1003.3	–
313.15 K, m1 = 1.923	1006.1	0.9649
313.15 K, m1 = 2.885	1012.3	1.127
313.15 K, m1 = 4.005	1018.6	1.336
313.15 K, m1 = 5.304	1024.9	1.56
313.15 K, m1 = 6.862	1031.1	1.859
313.15 K, m1 = 8.726	1037.1	2.195
313.15 K, m1 = 11.02	1042.8	2.626
313.15 K, m1 = 15.65	1050.2	3.513
313.15 K, m1 = 23.15	1056.1	4.918
318.15 K, m1 = 5.304	1021.8	1.38
318.15 K, m1 = 6.862	1027.8	1.632
318.15 K, m1 = 8.726	1033.6	1.906
318.15 K, m1 = 11.02	1039.1	2.268
318.15 K, m1 = 15.65	1046.3	3.024
318.15 K, m1 = 23.15	1052.1	4.196
323.15 K, m1 = 5.304	1018.6	1.222
323.15 K, m1 = 6.862	1024.5	1.44
323.15 K, m1 = 8.726	1030.1	1.681
323.15 K, m1 = 11.02	1035.4	1.983
323.15 K, m1 = 15.65	1042.4	2.646
323.15 K, m1 = 23.15	1048	3.658
328.15 K, m1 = 5.304	1015.9	1.095
328.15 K, m1 = 6.862	1021	1.293
328.15 K, m1 = 8.726	1026.5	1.492
328.15 K, m1 = 11.02	1031.6	1.76
328.15 K, m1 = 15.65	1038.4	2.333
328.15 K, m1 = 23.15	1043.9	3.212
333.15 K, m1 = 5.304	1012.3	1.024
333.15 K, m1 = 6.862	1017.5	1.164
333.15 K, m1 = 8.726	1022.7	1.343
333.15 K, m1 = 11.02	1027.8	1.564
333.15 K, m1 = 15.65	1034.4	2.061
333.15 K, m1 = 23.15	1039.8	2.818
